Here are results for eleven molecules from PubChem BioAssay (NCI).

Where “and” joins values, the source holds several entries; their conditions need not be identical. Identical values can stand only once.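 Tested at 5 concentrations; 48 h exposure; 96-well plates; endpoints linearly interpolated, else capped at highest concentration. GI50 = concentration required for 50% inhibition of growth. TGI: concentration producing complete growth inhibition.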

The first test has as its system T-47D breast. Kind of test: NCI-60 cell line screen, 48 h.
Molecule `Cc1ccc(S(=O)(=O)N=Nc2c(O)[nH]c3cc(O)c(C(=O)O)cc23)cc1` came in with a TGI of over 100 µM.

In the case of `O=C(O)c1ccc(CN2CCC(CN[C@@H]3C[C@H]3c3ccccc3)CC2)cc1`, the GI50 is over 100 µM and the TGI is over 100 µM.

As to `O=C1C=CC(=O)C2C1C1(Cl)C(Cl)=C(Cl)C2(Cl)C1(Cl)Cl` (centres undefined), the GI50 was 4.95 µM and the TGI was found to be 22.7 µM.

Consider `C=CC(=O)N1CCC(Oc2cc3c(Nc4ccc(Cl)c(Cl)c4F)ncnc3cc2OC)CC1`, for which the GI50 was < 0.01 µM and 0.0178 µM; the TGI was 25.9 µM and > 10 µM.

Turning to `Cc1cc(Cl)ccc1OCC(=O)Nc1nc2c(Cl)cccc2s1`, the GI50 is over 100 µM and the TGI was over 100 µM.

`CNC(=O)OCc1c(COC(=O)NC)c(-c2ccc(-c3ccccc3)cc2)n(C)c1C` came in with a TGI of 35.2 µM.

As for `COc1cccc2c1C(=N)c1c(O)c3c(c(O)c1C2=O)C[C@@](O)(C(C)=O)C[C@@H]3O[C@H]1C[C@H](N)[C@H](O)[C@H](C)O1`, the GI50 is 0.24 µM and the TGI worked out at 4.17 µM.

Consider `Cc1cn(-c2cc(NC(=O)c3cccc(C#Cc4cccc5[nH]nc(N)c45)c3)cc(C(F)(F)F)c2)cn1`, for which the GI50 is 3.39 µM and the TGI is 18.5 µM.

For `CN(C)CCC(=O)N1C/C(=C\c2ccc(Cl)c(Cl)c2)C(=O)/C(=C/c2ccc(Cl)c(Cl)c2)C1`, the TGI was 2.48 µM.

`CN(C)Cc1cc(C(F)(F)F)ccc1C(O)(c1ccccc1)c1ccccc1`: the TGI was found to be 47.3 µM.

As to `O=C(NC(=O)c1c(F)cccc1F)Nc1cccc(Oc2ncc(Cl)cn2)c1`, the TGI was over 100 µM.

A further test relates to MALME-3M melanoma. Kind of test: NCI-60 cell line screen, 48 h.
On to `Cc1ccc(S(=O)(=O)N=Nc2c(O)[nH]c3cc(O)c(C(=O)O)cc23)cc1`, for which the TGI was over 100 µM.

For the molecule `O=C(O)c1ccc(CN2CCC(CN[C@@H]3C[C@H]3c3ccccc3)CC2)cc1`, the GI50 is over 100 µM and the TGI was over 100 µM.

`O=C1C=CC(=O)C2C1C1(Cl)C(Cl)=C(Cl)C2(Cl)C1(Cl)Cl` (centres undefined): the GI50 is 3.23 µM and the TGI stood at 15.8 µM.

For `C=CC(=O)N1CCC(Oc2cc3c(Nc4ccc(Cl)c(Cl)c4F)ncnc3cc2OC)CC1`, the GI50 is 7.36 µM and > 5.35 µM; the TGI was 23.9 µM and > 10 µM.

With `Cc1cc(Cl)ccc1OCC(=O)Nc1nc2c(Cl)cccc2s1`, the GI50 was over 100 µM and the TGI was over 100 µM.

For the molecule `CNC(=O)OCc1c(COC(=O)NC)c(-c2ccc(-c3ccccc3)cc2)n(C)c1C`, the TGI was 10.6 µM.

`COc1cccc2c1C(=N)c1c(O)c3c(c(O)c1C2=O)C[C@@](O)(C(C)=O)C[C@@H]3O[C@H]1C[C@H](N)[C@H](O)[C@H](C)O1`: the GI50 was 0.391 µM and the TGI is 3.24 µM.

`Cc1cn(-c2cc(NC(=O)c3cccc(C#Cc4cccc5[nH]nc(N)c45)c3)cc(C(F)(F)F)c2)cn1`: the GI50 is 1.81 µM and the TGI is 10.9 µM.

For `CN(C)CCC(=O)N1C/C(=C\c2ccc(Cl)c(Cl)c2)C(=O)/C(=C/c2ccc(Cl)c(Cl)c2)C1`, the TGI stood at 1.51 µM.

For `CN(C)Cc1cc(C(F)(F)F)ccc1C(O)(c1ccccc1)c1ccccc1`, the TGI came out at 33.9 µM.

Consider `O=C(NC(=O)c1c(F)cccc1F)Nc1cccc(Oc2ncc(Cl)cn2)c1`, for which the TGI was over 100 µM.

The next test deals with SK-MEL-5 melanoma. Briefly: NCI-60 cell line screen, 48 h.
`Cc1ccc(S(=O)(=O)N=Nc2c(O)[nH]c3cc(O)c(C(=O)O)cc23)cc1` came in with a TGI of over 100 µM.

As to `O=C(O)c1ccc(CN2CCC(CN[C@@H]3C[C@H]3c3ccccc3)CC2)cc1`, the GI50 was over 100 µM and the TGI was over 100 µM.

For the molecule `O=C1C=CC(=O)C2C1C1(Cl)C(Cl)=C(Cl)C2(Cl)C1(Cl)Cl` (centres undefined), the GI50 is 6.61 µM and the TGI was found to be 19.4 µM.

Consider `C=CC(=O)N1CCC(Oc2cc3c(Nc4ccc(Cl)c(Cl)c4F)ncnc3cc2OC)CC1`, for which the GI50 was 7.18 µM and 3.47 µM; the TGI is 19.3 µM and > 9 µM.

Consider `Cc1cc(Cl)ccc1OCC(=O)Nc1nc2c(Cl)cccc2s1`, for which the GI50 was over 100 µM and the TGI was over 100 µM.

`CNC(=O)OCc1c(COC(=O)NC)c(-c2ccc(-c3ccccc3)cc2)n(C)c1C` returned a TGI of 14 µM.

As for `COc1cccc2c1C(=N)c1c(O)c3c(c(O)c1C2=O)C[C@@](O)(C(C)=O)C[C@@H]3O[C@H]1C[C@H](N)[C@H](O)[C@H](C)O1`, the GI50 is 0.523 µM and the TGI was determined as 2.17 µM.

Consider `Cc1cn(-c2cc(NC(=O)c3cccc(C#Cc4cccc5[nH]nc(N)c45)c3)cc(C(F)(F)F)c2)cn1`, for which the GI50 was 4.66 µM and the TGI was 21.7 µM.

The molecule `CN(C)CCC(=O)N1C/C(=C\c2ccc(Cl)c(Cl)c2)C(=O)/C(=C/c2ccc(Cl)c(Cl)c2)C1` displayed a TGI of 0.759 µM.

As to `CN(C)Cc1cc(C(F)(F)F)ccc1C(O)(c1ccccc1)c1ccccc1`, the TGI came out at 27.3 µM.

`O=C(NC(=O)c1c(F)cccc1F)Nc1cccc(Oc2ncc(Cl)cn2)c1` yielded a TGI of over 100 µM.

The next test has as its system KM12 colon. Briefly: NCI-60 cell line screen, 48 h.
On to `Cc1ccc(S(=O)(=O)N=Nc2c(O)[nH]c3cc(O)c(C(=O)O)cc23)cc1`, for which the TGI was over 100 µM.

On to `O=C(O)c1ccc(CN2CCC(CN[C@@H]3C[C@H]3c3ccccc3)CC2)cc1`, for which the GI50 is over 100 µM and the TGI was over 100 µM.

With `O=C1C=CC(=O)C2C1C1(Cl)C(Cl)=C(Cl)C2(Cl)C1(Cl)Cl` (centres undefined), the GI50 is 2.63 µM and the TGI was 8.95 µM.

Take `C=CC(=O)N1CCC(Oc2cc3c(Nc4ccc(Cl)c(Cl)c4F)ncnc3cc2OC)CC1`: the GI50 is 7.96 µM and 4.12 µM; the TGI is 27.1 µM and > 10 µM.

With `Cc1cc(Cl)ccc1OCC(=O)Nc1nc2c(Cl)cccc2s1`, the GI50 was 43.5 µM and the TGI was over 100 µM.

`CNC(=O)OCc1c(COC(=O)NC)c(-c2ccc(-c3ccccc3)cc2)n(C)c1C` gave a TGI of 24.9 µM.

Consider `COc1cccc2c1C(=N)c1c(O)c3c(c(O)c1C2=O)C[C@@](O)(C(C)=O)C[C@@H]3O[C@H]1C[C@H](N)[C@H](O)[C@H](C)O1`, for which the GI50 was 1.32 µM and the TGI turned out to be 8.68 µM.

For the molecule `Cc1cn(-c2cc(NC(=O)c3cccc(C#Cc4cccc5[nH]nc(N)c45)c3)cc(C(F)(F)F)c2)cn1`, the GI50 was 1.29 µM and the TGI was over 100 µM.

In turn, `CN(C)CCC(=O)N1C/C(=C\c2ccc(Cl)c(Cl)c2)C(=O)/C(=C/c2ccc(Cl)c(Cl)c2)C1` registered a TGI of 0.948 µM.

In turn, `CN(C)Cc1cc(C(F)(F)F)ccc1C(O)(c1ccccc1)c1ccccc1` displayed a TGI of 49.6 µM.

`O=C(NC(=O)c1c(F)cccc1F)Nc1cccc(Oc2ncc(Cl)cn2)c1` yielded a TGI of over 100 µM.

The next test relates to MDA-MB-231 breast. Kind of test: NCI-60 cell line screen, 48 h.
`Cc1ccc(S(=O)(=O)N=Nc2c(O)[nH]c3cc(O)c(C(=O)O)cc23)cc1` registered a TGI of over 100 µM.

Regarding `O=C(O)c1ccc(CN2CCC(CN[C@@H]3C[C@H]3c3ccccc3)CC2)cc1`, the GI50 is over 100 µM and the TGI was over 100 µM.

Turning to `O=C1C=CC(=O)C2C1C1(Cl)C(Cl)=C(Cl)C2(Cl)C1(Cl)Cl` (centres undefined), the GI50 was 3.62 µM and the TGI was 16.4 µM.

For `C=CC(=O)N1CCC(Oc2cc3c(Nc4ccc(Cl)c(Cl)c4F)ncnc3cc2OC)CC1`, the GI50 was 3.79 µM and 1.65 µM; the TGI was 23.8 µM and > 9.63 µM.

Turning to `Cc1cc(Cl)ccc1OCC(=O)Nc1nc2c(Cl)cccc2s1`, the GI50 was 16.2 µM and the TGI stood at 91.9 µM.

The molecule `CNC(=O)OCc1c(COC(=O)NC)c(-c2ccc(-c3ccccc3)cc2)n(C)c1C` came in with a TGI of 10.2 µM.

`COc1cccc2c1C(=N)c1c(O)c3c(c(O)c1C2=O)C[C@@](O)(C(C)=O)C[C@@H]3O[C@H]1C[C@H](N)[C@H](O)[C@H](C)O1`: the GI50 is 1.26 µM and the TGI was found to be 7.74 µM.

Turning to `Cc1cn(-c2cc(NC(=O)c3cccc(C#Cc4cccc5[nH]nc(N)c45)c3)cc(C(F)(F)F)c2)cn1`, the GI50 is 2.35 µM and the TGI stood at 16.7 µM.

Take `CN(C)CCC(=O)N1C/C(=C\c2ccc(Cl)c(Cl)c2)C(=O)/C(=C/c2ccc(Cl)c(Cl)c2)C1`: the TGI came to 0.799 µM.

In turn, `CN(C)Cc1cc(C(F)(F)F)ccc1C(O)(c1ccccc1)c1ccccc1` came in with a TGI of 24.8 µM.
